Earlier results as cited in paper PMC8075256, “Transport of Alzheimer’s associated amyloid-β catalyzed by P-glycoprotein” (PLOS ONE, 2021).

Test system: P-gp and BCRP
Details: ref 65 Kannan et al.
Excerpt: To further test if P-gp can transport Aβ42, we performed fluorescence accumulation assays in a human cellular system. […] Previous work by our group has shown that the chemotherapy-sensitive, non-P-gp-overexpressing DU145 cells do express detecta ...

Structure (SMILES): COc1cc2c(cc1OC)CN(CCc1ccc(NC(=O)c3cc(OC)c(OC)cc3NC(=O)c3cnc4ccccc4c3)cc1)CC2 [Tariquidar]
- concentrations at which TQR acts as an inhibitor of both P-gp and BCRP: greater than 100 nM
